The text below walks through data of patent publication US20260234188A1, “CHEMOKINE-BINDING PEPTIDES” (Oxford University Innovation Limited, priority 2022, published 2026).

Entries after “also recorded” stand apart in the source; their conditions may differ.

The first assay concerns panel of up to 42 human chemokines. The assay is described as follows: Phage-display next generation sequencing screen of overlapping hexadecapeptide libraries, chemokines displayed on streptavidin beads. It counts as binding. The settings on record: log2E greater than 5, chemokines named by first part of UniProt Entry Name. The text has this:
FIG. 1. Exemplar results from phage display screens. Phage-display libraries were constructed and analysed as described in (McLaughlin, 2013) (Tonikian, 2007). […] FIG. 1A, CC chemokines against evasin A library. FIG. 1B, CXC chemokines against the evasin B library. FIG. 1C, CXC and CX3C chemokines against the viral chemokine binding protein library. FIG. 1D, CXC chemokines against the chemokine library. […] Identified hexadecapeptides were mapped to the position in the originating protein (x-axis) and to fold enrichment (log 2 E, left y-axis). Regions of interest (ROI) were defined where the cumulative residue log 2 E, (clog 2 E:r, right y-axis) exceeds the 95% upper confidence interval of the median clog 2 E:r for the entire protein (indicated as a horizontal dotted line in each panel). Proteins are referred to by their UniProt ID.
Hexadecapeptides were identified using a phage-display next generation sequencing approach (McLaughlin, 2013). Libraries containing a total of 55662 overlapping peptides (from the tick chemokine binding proteins shown in Tables 3A and 3B, the viral chemokine binding proteins shown in Table 3C, the human chemokines shown in Table 3 E, and the human/viral chemokine receptors and other chemokine-binding proteins shown in Table 3D) were first constructed, and then screened against a panel of up to 42 human chemokines, as shown in Table 3F.
For the substance CR23112 (TLFASDFVLMWCVFFM), the “Chemokines Bound” value is “CCL17, CCL19,; also recorded: CCL20, CCL22,; also recorded: CCL8, X3CL1”.
Same read-out and setting: with CR26232 (VVTSVITWVVAVFASL) the entry was “CCL17, CCL18,; also recorded: CCL28, CCL8,; also recorded: X3CL1, CXL10,; also recorded: SDF1, CXL14”; with CR26093 (VVCILVWLLAFCVSLP), “CCL20, X3CL1,; also recorded: CXL10, IL8”.
With CR27428 (YLKAFLAAVLGWHLAP), the “Chemokines Bound” value was “CCL17, CCL18,; also recorded: CCL2, CCL20,; also recorded: X3CL1, CXL10,; also recorded: CXL11, SDF1,; also recorded: CXL14”.
As to CR23443 (TNWKLLAEIYEYLFFF), the “Chemokines Bound” value is on record as “CCL17, CCL18,; also recorded: X3CL1, CXL10,; also recorded: CXL13”.
As for CR26309 (VWLMSIVGTFLNMLVI), the “Chemokines Bound” value is on record as “CCL18, CXL10,; also recorded: CXL11, CXL13,; also recorded: CXL14”.
Same read-out and setting: with CR25151 (VLGDFLCKLLNMIFSI) the entry was “CCL18, CCL2, and CCL28, X3CL1, and CXL10, CXL14, and IL8”; with CR26513 (WGAAPVIMMTWFYAFF), “CCL11, CCL17, and CCL18, CCL19, and CCL20, CCL22, and CCL25, CCL28, and X3CL1, CXL10, and CXL11, CXL13, and IL8”; with CR28005 (YVSTLDFAIVFILMII), “CCL17, CCL18,; also recorded: CCL19, CCL20,; also recorded: CCL22, CCL28,; also recorded: X3CL1, CXL10,; also recorded: CXL11, SDF1,; also recorded: CXL13”.
Take CR25001 (VITWLVAVFASVPGII): the “Chemokines Bound” value is “CCL1, CCL19,; also recorded: CCL2, CXL11,; also recorded: CXL14”.
For the substance CR27050 (YDLFIGIKIVYCFLWG), the “Chemokines Bound” value is recorded as “CCL1, CCL17,; also recorded: CCL19, CCL20,; also recorded: CCL22, X3CL1,; also recorded: CXL10, CXL11,; also recorded: SDF1, CXL13,; also recorded: CXL14, IL8”.
On the same count and under the same terms, the result for CR23002 (TIWLVGFLLALPEILF) reads “CCL17, CCL18, and CCL19, CCL20, and CCL25, CCL28, and X3CL1, SDF1, and CXL13, CXL14, and IL8”; that for CR26667 (WNNFHTIMRNILGLVL), “CCL17, CCL18,; also recorded: CXL14”; that for CR23915 (TVFLSIFYSVIFAIGL), “CCL17, CCL18,; also recorded: CCL19, CCL2,; also recorded: CCL20, CCL22,; also recorded: CCL25, CCL28,; also recorded: CCL8, X3CL1,; also recorded: CXL10, CXL11,; also recorded: SDF1, CXL13,; also recorded: CXL14, IL8”.
Still for that read-out and setting: with CR5277 (FILYQFELFGFTLIFF) the entry was “CCL17, CCL22, and CCL25, CCL28, and CXL10, CXL11, and SDF1”; with CR2301 (AWLPYYIGISIDSFIL), “CCL17, CCL19,; also recorded: CCL20”; with CR23950 (TVLATFKILICIVWGV), “CCL18, CCL19,; also recorded: CCL20, CCL25,; also recorded: SDF1, IL8”.
Regarding CR24989 (VITFCLYVGQFLAYVR), the “Chemokines Bound” value is “CCL17, CCL18,; also recorded: CCL19, CCL20,; also recorded: CCL25, X3CL1,; also recorded: CXL10, SDF1,; also recorded: CXL14”.
For the substance CR27677 (YSAFLSGMTSLLLVLL), the “Chemokines Bound” value is reported as “CCL17, CCL18,; also recorded: CCL20, CCL25,; also recorded: CXL10, CXL14”.

The assay is the same for the next values; noted with them: log2E greater than 5, chemokines named by first part of UniProt Entry Name, peptides binding complement C5a (control) excluded.
Turning to CR6041 (FSAILLYIDDFSAYFS), the “Chemokines Bound” value is on record as “CCL17, CCL18,; also recorded: X3CL1, IL8”.
Turning to VP6289 (MVAVALYAYGLAFRLM), the “Chemokines Bound” value is recorded as “CCL1, CCL11,; also recorded: CCL15, CCL17,; also recorded: CCL19, CCL2,; also recorded: CCL20, CCL22,; also recorded: CCL25, CCL28,; also recorded: CCL5, CXL10,; also recorded: SDF1, IL8”.
In the case of CR9291 (ILALVGNTLALWLFIR), the “Chemokines Bound” value was “CCL2, CCL22,; also recorded: CCL25, IL8”.
Consider EB2053 (KSDVYELFTVEYCGTN), for which the “Chemokines Bound” value is “CXL10, CXL11,; also recorded: CXL13”.
The same measure, in the same setting: the result for “CR9515: chemokine binding peptide of Table 5A used in FIG. 5 combinations (ILYQFELFGFTLIFFK)” reads “CCL18, CCL19,; also recorded: CXL10, CXL14”; that for EB3085 (SGLCLSTTYIDFSEYG), “CXL10, CXL11,; also recorded: SDF1, CXL14”; that for CR6836 (GFFIPLMFMIFSYTFI), “CCL22, CXL14, and IL8”.
CR7024 (GIITSVLAWVTAILAT): the “Chemokines Bound” value is recorded as “CCL2, CCL22,; also recorded: CCL28, CXL10,; also recorded: CXL11, SDF1,; also recorded: CXL13, IL8”.
Take CR6163 (FSRAIDIIYSLITSSN): the “Chemokines Bound” value was “CCL17, CCL18,; also recorded: CCL2, CCL22,; also recorded: CCL28, X3CL1,; also recorded: CXL14”.
Consider CR6515 (FWTPYNIVLFLETLVE), for which the “Chemokines Bound” value was “CCL20, CCL22, and CXL10, CXL13, and IL8”.
On to VP4071 (IKAESKGSELILLDPP), for which the “Chemokines Bound” value was “CCL17, CCL20,; also recorded: CCL22”.
Still for that read-out and setting: with CR7815 (GVVTSVITWVVAVFAS) the entry was “CCL1, CCL15,; also recorded: CCL2, CCL20,; also recorded: CCL22, CCL25,; also recorded: CCL28, CCL8,; also recorded: CXL10, CXL13”.
The same measure, in the same setting: the result for CR7367 (GMPPADEDYSPCMLET) reads “CCL11, CCL18,; also recorded: CCL19, CCL20”; that for CR7860 (GWVLGDFLCKLLNMIF), “CCL1, CCL17, and CCL18, CCL19, and CCL2, CCL20, and CCL22, CCL28, and CCL8, CXL10, and SDF1, CXL13, and IL8”.
For CR6489 (FWAVDAVANWYFGNFL), the “Chemokines Bound” value is “CCL17, CCL18, and CCL22, CCL28, and CXL10, CXL14, and IL8”.
Same read-out and setting: with CR9282 (ILAFFAAWLPYYIGIS) the entry was “CCL11, CCL18,; also recorded: X3CL1, CXL10,; also recorded: CXL11, CXL13”.
Consider TDGTACYVVERKVWDR [HD3838], for which the “Chemokines Bound” value was “CCL19, CCL2,; also recorded: CCL20, CCL28”.
Same read-out and setting: with CR9111 (IIFSYVVVFLVAWLPY) the entry was “CCL20, CCL22,; also recorded: CCL28, CXL11,; also recorded: CXL13”.

The assay is the same for the next values; noted with them: log2E greater than 5, chemokines named by first part of UniProt entry name, C5a (control) binders excluded.
In the case of CK576 (CADPSESWVQEYVYDL), the “Chemokines Bound” value was “CCL17, CCL5,; also recorded: CXL10”.
In the case of CR12277 (LFSFNRFFCQLVYFIY), the “Chemokines Bound” value is “CCL18, CCL25,; also recorded: X3CL1, CXL10”.
Turning to CR19192 (RLGVWLMSIVGTFLNV), the “Chemokines Bound” value is listed as “CCL1, CCL17,; also recorded: CCL2, CCL25,; also recorded: X3CL1, CXL11”.
For CR15801 (MSFFSGMLLLLCISID), the “Chemokines Bound” value is “CCL18, CCL20, and SDF1”.
On the same count and under the same terms, with CR1802 (ASMILESLFAALVTLI) the entry was “CCL17, CCL18,; also recorded: CCL2, CCL20,; also recorded: CCL22, CCL25,; also recorded: CCL28, CXL10”; with CR15153 (LYSLLFLLGLLGNGAV), “CCL18, CCL22,; also recorded: CCL25”.
Still for that read-out and setting: with CR22747 (TFKILICIVWGVMPVV) the entry was “CCL1, CCL17,; also recorded: CCL18, CCL20,; also recorded: CCL22, CCL28,; also recorded: X3CL1, CXL10,; also recorded: SDF1, CXL13,; also recorded: CXL14”.
The same measure, in the same setting: the result for CR20981 (SLFSALVTLITSLFGS) reads “CCL1, CCL11,; also recorded: CCL17, CCL18,; also recorded: CCL2, CCL25,; also recorded: CCL8, X3CL1,; also recorded: CXL10, IL8”; that for CR22272 (SWKVLLTLVWGAAPVI), “CCL17, CCL18,; also recorded: CCL20, CCL22,; also recorded: CCL25, CCL28,; also recorded: X3CL1, CXL10,; also recorded: CXL11, SDF1,; also recorded: CXL14, IL8”; that for CR15670 (MMTWFYAFFYSTVQRA), “CCL18, CCL2, and CCL20, CCL25, and CCL28, CCL8, and X3CL1, CXL13, and IL8”.
Regarding CK1982 (IFKTIVAKEICADPKQ), the “Chemokines Bound” value is given as “CCL1, CCL22,; also recorded: CCL5, X3CL1,; also recorded: CXL10, CXL13”.
Take CR21236 (SMILESLFAALVTLIT): the “Chemokines Bound” value was “CCL22, CXL10,; also recorded: CXL11, SDF1,; also recorded: CXL13, IL8”.
On to CR10681 (KIIFSYVVVFLVAWLP), for which the “Chemokines Bound” value was “CCL25, CCL28, and SDF1”.
On the same count and under the same terms, with CK3115 (LLESYFETNSECSKPG) the entry was “CCL19, CCL22,; also recorded: X3CL1, CXL14”; with CR1124 (ALIQMLEICIGFVVPF), “CCL18, CCL19,; also recorded: CCL20”; with CR14585 (LTLKVILGFFLPFVVM), “CCL17, CCL18,; also recorded: CCL19, CCL20,; also recorded: CXL14”.
The same measure, in the same setting: the result for CR17781 (PSWIISFSVWMAAILL) reads “CCL17, CCL18, and CCL19, CCL2, and CCL20, CCL22, and CCL25, CCL28, and X3CL1, CXL10, and CXL11, SDF1, and CXL13, CXL14, and IL8”; that for CR12872 (LIYLFLLLWEDTQGWG), “CCL1, CCL18, and CCL19, CCL2, and CCL20, CCL25, and CXL10, SDF1, and IL8”.
As for CR11478 (LAFIYVLMFLANAIGN), the “Chemokines Bound” value is recorded as “CCL1, CCL20,; also recorded: CXL11, SDF1,; also recorded: CXL13, CXL14”.
On the same count and under the same terms, the result for CR13634 (LMLVFSFVSMLASLAH) reads “CCL19, CCL28,; also recorded: CXL13, CXL14”; that for CR20965 (SLFAALVTLITSLFGS), “CCL11, CCL17,; also recorded: CCL18, CCL19,; also recorded: CCL2, CCL20,; also recorded: CCL28, X3CL1,; also recorded: CXL10, CXL11,; also recorded: CXL14, IL8”; that for CR2051 (ATYMLLVLYYAMLPLM), “CCL20, CCL22,; also recorded: CCL28, X3CL1,; also recorded: CXL10, SDF1,; also recorded: CXL14, IL8”.
In the case of CR10825 (KLIFAIVVAYFLSWGP), the “Chemokines Bound” value was “CCL17, CCL28,; also recorded: CXL14”.
The same measure, in the same setting: with CR11604 (LALSISLLAEVLMFLF) the entry was “CCL17, CCL18,; also recorded: CCL20, CCL25,; also recorded: CXL10, CXL13,; also recorded: CXL14, IL8”.
For CR12330 (LFVMLFSYGFTLRTLF), the “Chemokines Bound” value was “CCL17, CCL18, and CCL20, CCL22, and CCL28, CXL14, and IL8”.
Turning to CR1003 (ALAFIYVLMFLANAIG), the “Chemokines Bound” value was “CCL17, CCL18, and CCL19, CCL20, and CCL28, X3CL1, and CXL10, SDF1, and IL8”.
